Measured values from paper PMC9575645 (Signal Transduction and Targeted Therapy, 2022).

Tests used:
[1] = test system: Influenza A virus (H1N1) (PR8); settings: for SI (CC50/IC50) / IC50: Influenza A virus (H1N1) (PR8); for IC50: A549 cells
LLC-PK = assay: Cytotoxicity, MTT assay, LLC-PK; format: cell-based, porcine
Method: (§1) The cytotoxic effects of the chemicals and their solvents were tested by the MTT assay,[44] and its procedure is described in Supplementary Information.
(§2) The cytotoxic effects of the chemicals and their solvents used were tested by the MTT assay as described previously.^10 In brief, the chemicals were dissolved in DMSO to a stock concentration of 10 mM, and then freshly serially diluted in serum-free medium before being added to cell culture monolayers. The absorbance was measured using an enzyme-linked immunosorbent assay (ELISA) reader at an optical density (OD) of 570 nm. The percent cell viability was calculated using the following formula, [(ODsample˗ODblank)/(ODcontrol˗ODblank)] × 100%. According to the cell cytotoxicity data, dose-response curves were generated for the calculation of CC50 using GraphPad Prism software version 8.4.2.

[2] = test system: Bovine coronavirus (KWD20); assay: In vitro antiviral activity against BCoV in HRT-18G cells (CCIF viral yield); format: cell-based; settings: for IC50: HRT-18G cells
Method: Cells were grown in 6- or 12-well plates or 8-well chamber slides to the desired confluency and then washed twice with phosphate-buffered saline (PBS, pH 7.4). They were then mock-inoculated with medium only or virus-inoculated with various multiplicities of infection (MOI): MOI of 0.01 or 1 FFU/cell for IAV, and MOI of 0.01 or 0.1 FFU/cell for SARS-CoV-2, BCoV, PEDV, PRRSV, and PSaV. Thereafter, each inoculum was absorbed for 1 h, and the cells were washed twice with PBS (pH 7.4). As shown in Supplementary Table 4, further treatments and incubations varied dependent on the virus species used. Cells treated with PKA inhibitor H89 (5 μM or 50 μM concentration) or vehicle-treated immediately after absorption of IAV at an MOI of 1 FFU or SARS-CoV-2 at an MOI of 0.1 FFU were incubated for 24 and 36 h, respectively, and each cell lysate was used for the detection of HSL and pHSL by western blot analysis as described below. Cells treated with lipase inhibitors at the median incubation time of IAV or SARS-CoV-2 as described in the above condition were supplemented with LA, OA, or PA at 100 µM concentration and left incubation for further median incubation time. The cells were used to assess levels of intracellular TAGs, cholesterol, FFAs, glycerol, FAO, proinflammatory cytokines as well as viral genome copy numbers and virus titers as described below and in Supplementary Information.
To determine the antiviral effects of chemicals, serial 10-fold dilutions of each cell culture supernatant after three cycles of freezing and thawing cycles were prepared in appropriate medium supplemented with 100 U/mL penicillin and 100 μg/mL streptomycin as described above. To determine the viral infectivity titer in lung tissues from the hamsters challenged with or without SARS-CoV-2, or administered with or without inhibitors as described above, aseptically sampled lungs from five hamsters per group at day five post-virus infection were harvested. Cleared supernatants from lung tissue as produced from IAV-infected mice above were serially tenfold-diluted with virus growth medium. […] The cells were washed twice with PBS (pH 8.0), mounted with 60% glycerol, and observed byr inverted fluorescence microscopy. The number of cells showing a viral antigen-positive signal at the endpoint dilution were counted. IC50 was calculated using GraphPad Prism software version 8.4.2. […] CC50 data from the MTT assay and IC50 from the IF assay were both calculated using GraphPad Prism software version 8.4.2.

IAV HA and M2 proteins = format: cell-based, Influenza A virus
[3] = test system: Porcine sapovirus (Cowden); settings: for IC50: Porcine sapovirus (Cowden), LLC-PK cells
MDCK = assay: Cytotoxicity, MTT assay, MDCK; format: cell-based, canine
Method: as §1, §2

SARS-CoV-2 (KCDC03) = assay: In vitro antiviral activity against SARS-CoV-2 in Vero E6 cells (CCIF viral yield, RT-qPCR); format: cell-based; settings: for SI (CC50/IC50) / IC50: SARS-CoV-2 (KCDC03); for IC50: Vero E6 cells; for virus replication (genome copy number, infectious progeny): SARS-CoV-2-infected Vero E6, 20 µM at 18 hpi
SARS-CoV-2 S protein = format: cell-based
A549 = assay: Cytotoxicity, MTT assay, A549; format: cell-based, human
Method: as §1, §2

[4] = test system: proinflammatory cytokines; assay: Proinflammatory cytokines in IAV-infected A549 cells (RT-qPCR, ELISA); format: cell-based, human; settings: 20 μM

SMILES | virus replication (genome copy number, infectious progeny) [1] | SI (CC50/IC50) [1] | IC50 [1] [µM] | CC50 (LLC-PK) [µM] | SI (CC50/IC50) [2] | IC50 [2] [µM] | palmitoylation of IAV HA and M2 proteins (IAV HA and M2 proteins) | SI (CC50/IC50) [3] | IC50 [3] [µM] | CC50 (MDCK) [µM] | SI (CC50/IC50) (SARS-CoV-2 (KCDC03)) | IC50 (SARS-CoV-2 (KCDC03)) [µM] | virus replication (genome copy number, infectious progeny) (SARS-CoV-2 (KCDC03)) | palmitoylation of the SARS-CoV-2 spike (S) protein (SARS-CoV-2 S protein) | CC50 (A549) [µM] | proinflammatory cytokines IFN-α, IFN-β, TNF-α, IL-6, MCP-1 [4]
CN(C)C(=O)Nc1cccc(-c2ccc(N(C)C)cc2)c1 [Atglistatin] | inhibiting the replication | 251 | 0.82 ± 0.08 | 224 ± 2.3 | 152 | 1.2 ± 0.04 | significantly inhibited | 72 | 3.11 ± 0.39 | 269 ± 3.2 | 154 | 1.47 ± 0.12 | inhibiting the replication | significantly inhibited | 206 ± 3 | significantly reduced
COc1nn(-c2ccc(NC(=O)OCc3ccccc3)c(C)c2)c(=O)o1 [CAY10499] | inhibiting the replication | 27 | 4.13 ± 0.46 | 109 ± 8.1 | 14 | 7.3 ± 0.52 | significantly inhibited | 9 | 11.8 ± 2.6 | 110 ± 4.1 | 62 | 1.54 ± 0.18 | inhibiting the replication | significantly inhibited | 106 ± 8.9 | significantly reduced
